Measurements reported in PubChem BioAssay (NCI).
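Each compound was tested at five concentrations against cells in 96-well plates for 48 hours. GI50 is the concentration that inhibits growth by half. At the TGI there is no net growth.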

What was measured:
Test in all cases: NCI-60 cell line screen, 48 h
[1] = tested on: SN12C renal
[2] = tested on: EKVX NSCLC
[3] = tested on: HT29 colon
[4] = tested on: COLO 205 colon
[5] = tested on: MOLT-4 leukemia
[6] = tested on: A498 renal
[7] = tested on: DU-145 prostate
[8] = tested on: SK-MEL-2 melanoma
[9] = tested on: HCT-15 colon
[10] = tested on: SK-MEL-28 melanoma
[11] = tested on: HOP-92 NSCLC
[12] = tested on: OVCAR-3 ovarian
[13] = tested on: RPMI-8226 leukemia
[14] = tested on: ACHN renal
[15] = tested on: UACC-62 melanoma
[16] = tested on: OVCAR-4 ovarian
[17] = tested on: SF-539 CNS
[18] = tested on: SK-MEL-5 melanoma
[19] = tested on: IGROV1 ovarian
[20] = tested on: MDA-MB-231 breast
[21] = tested on: SK-OV-3 ovarian
[22] = tested on: SW-620 colon
[23] = tested on: CCRF-CEM leukemia
[24] = tested on: TK-10 renal
[25] = tested on: NCI/ADR-RES ovarian
[26] = tested on: MDA-MB-435
[27] = tested on: HCC-2998 colon
[28] = tested on: 786-0 renal
[29] = tested on: NCI-H23 lung
[30] = tested on: BT-549 breast
[31] = tested on: OVCAR-8 ovarian
[32] = tested on: LOX IMVI melanoma
[33] = tested on: HL-60(TB) leukemia
[34] = tested on: M14 melanoma
[35] = tested on: T-47D breast
[36] = tested on: SNB-19 CNS
[37] = tested on: UO-31 renal
[38] = tested on: SNB-75 CNS
[39] = tested on: SR leukemia
[40] = tested on: KM12 colon
[41] = tested on: UACC-257 melanoma
[42] = tested on: MALME-3M melanoma
[43] = tested on: HOP-62 NSCLC
[44] = tested on: K-562 leukemia
[45] = tested on: NCI-H226 lung
[46] = tested on: SF-268 CNS
[47] = tested on: MCF7 breast
[48] = tested on: A549 NSCLC
[49] = tested on: CAKI-1 renal
[50] = tested on: PC-3 prostate
[51] = tested on: HS 578T breast
[52] = tested on: SF-295 CNS
[53] = tested on: NCI-H460 lung
[54] = tested on: HCT-116 colon
[55] = tested on: U251 CNS
[56] = tested on: RXF 393 renal
[57] = tested on: OVCAR-5 ovarian
[58] = tested on: NCI-H522 lung

C#CC(=O)N(c1ccc(OC)cc1OC)C(C(=O)NCC(=O)OCC)c1cccs1 (stereo unspecified)
GI50 [1]: 2210 nM
TGI [1]: 16500 nM
GI50 [2]: 260 nM
TGI [2]: 1320 nM
GI50 [3]: 241 nM
TGI [3]: 610 nM
GI50 [4]: 1810 nM
TGI [4]: 3740 nM
GI50 [5]: 375 nM
TGI [5]: 1950 nM
GI50 [6]: 215 nM
TGI [6]: 541 nM
GI50 [7]: 436 nM
TGI [7]: 4020 nM
GI50 [8]: 11000 nM
TGI [8]: 26200 nM
GI50 [9]: 759 nM
TGI [9]: 2390 nM
GI50 [10]: 2260 nM
TGI [10]: 6030 nM
GI50 [11]: 31.3 nM
TGI [11]: 110 nM
GI50 [12]: 160 nM
TGI [12]: 528 nM
GI50 [13]: 44.9 nM
TGI [13]: 193 nM
GI50 [14]: 114 nM
TGI [14]: 1250 nM
GI50 [15]: 1470 nM
TGI [15]: 5810 nM
GI50 [16]: 1750 nM
TGI [16]: 3970 nM
GI50 [17]: 56.7 nM
TGI [17]: 110 nM
GI50 [18]: 8820 nM
TGI [18]: 21300 nM
GI50 [19]: 30 nM
TGI [19]: 97.9 nM
GI50 [20]: 173 nM
TGI [20]: 1140 nM
GI50 [21]: 1820 nM
TGI [21]: 3400 nM
GI50 [22]: 1270 nM
TGI [22]: 3050 nM
GI50 [23]: 27.7 nM
TGI [23]: 81 nM
GI50 [24]: 3960 nM
TGI [24]: 10700 nM
GI50 [25]: 177 nM
TGI [25]: 813 nM
GI50 [26]: 3800 nM
TGI [26]: 16200 nM
GI50 [27]: 4980 nM
TGI [27]: 17700 nM
GI50 [28]: 19.1 nM
TGI [28]: 38.9 nM
GI50 [29]: 257 nM
TGI [29]: 1070 nM
GI50 [30]: 318 nM
TGI [30]: 1190 nM
GI50 [31]: 970 nM
TGI [31]: 17900 nM
GI50 [32]: < 12.5 nM
TGI [32]: < 18.5 nM
GI50 [33]: 18.7 nM
TGI [33]: 38.7 nM
GI50 [34]: 1880 nM
TGI [34]: 4540 nM
GI50 [35]: 2010 nM
TGI [35]: 5100 nM
GI50 [36]: 2420 nM
TGI [36]: 8080 nM
GI50 [37]: 16.7 nM
TGI [37]: 33.9 nM
GI50 [38]: 152 nM
TGI [38]: 399 nM
GI50 [39]: 22 nM
TGI [39]: 52.8 nM
GI50 [40]: 372 nM
TGI [40]: 2240 nM
GI50 [41]: 3290 nM
TGI [41]: 13000 nM
GI50 [42]: 66 nM
TGI [42]: 164 nM
GI50 [43]: 436 nM
TGI [43]: 2280 nM
GI50 [44]: 594 nM
TGI [44]: 2960 nM
GI50 [45]: 11300 nM
TGI [45]: 38000 nM
GI50 [46]: 326 nM
TGI [46]: 1170 nM
GI50 [47]: 2040 nM
TGI [47]: 9100 nM
GI50 [48]: 5560 nM
TGI [48]: 31700 nM
GI50 [49]: 187 nM
TGI [49]: 901 nM
GI50 [50]: 871 nM
TGI [50]: 7880 nM
GI50 [51]: 444 nM
TGI [51]: 3260 nM
GI50 [52]: 183 nM
TGI [52]: 362 nM
GI50 [53]: 717 nM
TGI [53]: 6840 nM
GI50 [54]: 1580 nM
TGI [54]: 3420 nM
GI50 [55]: 445 nM
TGI [55]: 1260 nM
GI50 [56]: 271 nM
TGI [56]: 1010 nM
GI50 [57]: 574 nM
TGI [57]: 2330 nM
GI50 [58]: 83.1 nM
TGI [58]: 258 nM
